Patent US10858331B1, “Ester nitrates derivatives of aromatic aldehydes with multiple pharmalogic properties to treat sickle cell disease” (VIRGINIA COMMONWEALTH UNIVERSITY, priority 2013, dated 2020)

How the values were obtained:
Hb [1] = molecular target: T1, Hb (Homo sapiens, UniProt P68871+P69905); assay: Oxygen equilibrium curve (OEC) study with normal whole blood (AA); type: cell-based; conditions: for ΔP50: versus DMSO control
T1 construct: normal whole blood (AA); from tissue; host or cells: normal whole blood (AA), red blood cells
T1 sequence (P69905 2-142 limits assumed): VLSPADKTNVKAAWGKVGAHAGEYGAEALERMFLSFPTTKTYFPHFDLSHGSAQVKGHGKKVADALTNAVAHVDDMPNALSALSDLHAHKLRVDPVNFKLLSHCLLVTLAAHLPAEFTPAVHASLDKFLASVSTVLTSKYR
T1 sequence (P68871 2-147 limits assumed): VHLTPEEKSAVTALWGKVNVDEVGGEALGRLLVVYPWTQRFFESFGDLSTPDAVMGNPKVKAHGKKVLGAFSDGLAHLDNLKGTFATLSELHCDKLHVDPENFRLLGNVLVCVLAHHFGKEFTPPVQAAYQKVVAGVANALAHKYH
Method: (§1) Studies were performed on compounds TD-7, TD-7-1, TD-8, TD-8-1, TD-9 and TD-9-1 using 100 mM stock solution in DMSO and normal whole blood (AA). TD-7, TD-8 and TD-9 are compounds with a hydroxymethyl group on the pyridine ring, while TD-7-1, TD-8-1 and TD-9-1 are the respective nitrate ester derivatives. The whole blood samples had hematocrit values ranging from 29-36%, and cell-free purified Hb of 10-12 g/dL in the absence or presence of effectors solubilized in DMSO at 2 mM or in some cases with varying compound concentration. The blood samples were incubated in an IL 237 tonometer (Instrumentation Laboratories, Inc., Lexington, Mass.) for about 5-7 min at 37° C. against a gas mixture containing O2 concentrations of 0.804%, 2.935% and 5.528% and allowed to equilibrate at O2 tensions of 6, 20 and 40 mmHg. After equilibration, the sample was removed via syringe and aspirated into a ABL 700 series table top automated blood gas analyzer (Radiometer America, Inc., Westlake, Ohio) to determine total hemoglobin (tHb), hematocrit (Hct), pH, pCO2, partial pressure of oxygen (pO2), and the Hb oxygen saturation values (sO2). Similar procedures were followed for concentration and time dependence studies. The measured values of pO2 and sO2 at each oxygen saturation level were then subjected to a non-linear regression analysis using the program Scientist (Micromath, Salt Lake City, Utah) with the following equation: […]
This equation was used to calculate P50 and Hill coefficient (N) values. Corresponding control experiments without the test compound (P50control) but containing DMSO were also performed.

cell-free Hb = molecular target: T2, cell-free Hb (Homo sapiens, UniProt P68871+P69905); assay: OEC study with normal cell-free Hb; type: biochemical; conditions: cell-free Hb 12 mg/mL, 2 mM compound; for N (Hill coefficient) / P50: n = 1; for ΔP50: versus control P50 12.5
T2 construct: Hemoglobin was prepared from centrifuging human blood; from tissue; host or cells: human blood (red cells lysed, Hb purified on DEAE sephacel)
T2 sequence (P69905 2-142 limits assumed): as the sequence (P69905 2-142 limits assumed) above
T2 sequence (P68871 2-147 limits assumed): as the sequence (P68871 2-147 limits assumed) above
Method: as §1
Hemoglobin was prepared from centrifuging human blood at 2500 rpms for 20 min at 4° C. The supernatant solution, debris and plasma were discarded from the centrifuge bottles, leaving behind RBCs. The RBCs were washed thrice with an excess volume of 0.9% NaCl, and once with 1.0% NaCl, each time centrifuging and discarding the supernatant solution. The RBCs were pooled together into a chilled flask and hemolyzed to free Hb by adding 1-2 volume excess of 50 mM Tris buffer, pH 8.6 (containing EDTA). The mixture was allowed to stand in ice for 30 min with occasional stirring. The Hb solution was centrifuged at 10,000 rpm for 2 h at 4° C. The supernatant Hb solution was pooled into a chilled flask and NaCl (40-60 mg/mL Hb solution) was slowly added with stirring. Hemoglobin solution was centrifuged at 10,000 rpm for 2 h at 4° C. to remove any cell stroma remnants. The clear supernatant Hb solution was pooled into a chilled flask and the “syrupy” pellet was discarded. Hemoglobin solution was dialyzed against 50 mM Tris buffer, pH 8.6 (containing EDTA) at 4° C. to remove NaCl and/or other low molecular weight impurities. Strips of standard cellulose dialysis tubing that had been washed 3-4 times and boiled for 10 min in deionized water were used for dialysis. The dialyzed Hb was further purified by ion-exchange chromatography using DEAE sephacel to exclude 2,3-DPG. The resin was equilibrated with 50 mM Tris buffer, pH 8.6, and the Hb solution was run through the column with 50 mM Tris buffer, pH 8.6 (containing EDTA). The pooled fractions were concentrated with an Amicon stirred cell (Amicon, Model 402), to a final HbA concentration of about 80-120 mg/mL. Concentrated HbA was stored at −80° C.
As a result of the low left-shifting activities of TD-8 and TD-9, as well as the nitrate ester derivatives, we further evaluated the activity of the compounds TD-1, TD-7, TD-7-1, TD-8, and TD-9 using cell-free Hb (devoid of any proteins, enzymes, plasma and cell membranes) to determine whether plasma protein or RBC membrane could have any effect on compound biological activity. Previous studies have shown limited effect of plasma protein and RBC membrane on SHMF activity. The same tonometry procedure used on whole blood was used with the cell-free hemoglobin using 2 mM compound and 12 mg/mL of Hb.

Hb [2] = molecular target: T1, Hb; assay: Time-dependent OEC study with whole blood; type: cell-based; conditions: 0.5 mM; for P50: whole blood (Hct~34%); for N (Hill coefficient) / ΔP50: whole blood
Method: as §1
All samples were pre-incubated with whole blood (Hct˜34%) with the specified compounds 0.5 mM concentrations for the specified time. The control experiment without test compound (P50 (control)) contains the same concentration of DMSO used to solubilize the test solution (P50 (sample)).

SS cells = assay: In vitro RBC anti-sickling (morphological) study with SS cells; type: cell-based, human; conditions: SS cells, 1 h air then 4% O2, 37° C., 5 h; for inhibition at 500 µM / inhibition at 1000 µM / inhibition at 2000 µM / inhibition at 5000 µM: Homo sapiens, read-out: Inhibition of sickled cells; for inhibition at 1000 µM: 1.0 mM; for inhibition at 2000 µM: 2.0 mM; for inhibition at 5000 µM: 5.0 mM
Method: In vitro RBC morphological (anti-sickling) analysis was conducted at the Children's Hospital of Philadelphia (by Drs. Toshio Asakura and Osheiza Abdulmalik). The anti-sickling effects of 5HMF, TD-7 HCl, TD-7, TD-1, and TD-7-1 were studied by incubating suspensions of SS cells in the absence or presence of three different concentrations of the effectors in the presence of air for 1 h at 37° C. followed by incubation under 4% oxygen at 37° C. for 5 h. All samples were pre-incubated for 1 h with various compounds and then incubated under 4% O2 for 5 h. […] Table 5 represents the concentrations of the effectors along with the % inhibition of sickling cells. The hemolysates that had been prepared from SS cells after incubation with test compounds were also subjected to cation-exchange HPLC as previously reported (Abdulmalik et al., 2005).

[3] = 2 mM compound, 1.5 h incubation
[4] = 2 mM compound, 1.5 h incubation, 37° C.

| Structure (SMILES) | N (Hill coefficient) (Hb [1]; [3]) | P50 (Hb [1]; [4]) | ΔP50 (Hb [1]; [3]) [mmHg] | N (Hill coefficient) (cell-free Hb) | P50 (cell-free Hb) [mmHg] | ΔP50 (cell-free Hb) [mmHg] | P50 (Hb [2]; incubation 1 h) [mmHg] | P50 (Hb [2]; incubation 2 h) [mmHg] | P50 (Hb [2]; incubation 4 h) [mmHg] | P50 (Hb [2]; incubation 6 h) [mmHg] | P50 (Hb [2]; incubation 10 h) [mmHg] | P50 (Hb [2]; incubation 12 h) [mmHg] | N (Hill coefficient) (Hb [2]; incubation 1 h) | ΔP50 (Hb [2]; incubation 1 h) [mmHg] | N (Hill coefficient) (Hb [2]; incubation 2 h) | ΔP50 (Hb [2]; incubation 2 h) [mmHg] | inhibition at 500 µM (SS cells; 0.5 mM) [%] | inhibition at 1000 µM (SS cells) [%] | inhibition at 2000 µM (SS cells) [%] | inhibition at 5000 µM (SS cells) [%] | further results |
| --- | --- | --- | --- | --- | --- | --- | --- | --- | --- | --- | --- | --- | --- | --- | --- | --- | --- | --- | --- | --- | --- |
| O=Cc1ccc(CO)o1 [Compound 5HMF, 5-(hydroxymethyl) furfural, reference compound] | 1.8 ± 0.1^c† | 20.2 ± 2.0^c† mmHg | −11.1 | 2.0 | 8.3 | −4.2 | 29.8 ± 0.2 | 29.2 ± 0.3 | 29.2 ± 0.1 | 30.0 ± 0.1 | 31.8 ± 0.1 | 32.8 ± 0.1 | 2.2 ± 0.1 | −2.9 | 2.2 ± 0.1 | −3.8 | 4 | 17 | 35 | 75 | N (Hill coefficient) (Hb [2]; incubation 4 h): 2.1 ± 0.1; ΔP50 (Hb [2]; incubation 4 h): −3.9 mmHg; N (Hill coefficient) (Hb [2]; incubation 6 h): 2.1 ± 0.1; ΔP50 (Hb [2]; incubation 6 h): −4.2 mmHg; N (Hill coefficient) (Hb [2]; incubation 10 h): 2.1 ± 0.1; ΔP50 (Hb [2]; incubation 10 h): −3.3 mmHg; N (Hill coefficient) (Hb [2]; incubation 12 h): 2.0 ± 0.1; ΔP50 (Hb [2]; incubation 12 h): −3.3 mmHg |
| COc1ccc(OCc2cccnc2)c(C=O)c1 [INN-312, reference compound] |  |  |  |  |  |  |  |  |  |  |  |  |  |  |  |  |  |  |  |  | Inhibition of sickled cells (SS cells; 0.5 mM): 15% |
| COc1ccc(OCc2cccc(CO)n2)c(C=O)c1 [TD-7, 2-((6-(Hydroxymethyl)pyridin-2-yl)methoxy)-5-methoxybenzaldehyde] | 1.3 ± 0.3^c† | 14.3 ± 4.3^c† mmHg | −17.0 | 1.8 | 7.6 | −4.9 | 28.2 ± 0.9 | 28.2 ± 0.8 | 28.8 ± 0.6 | 29.1 ± 0.6 | 30.6 ± 1.0 | 31.1 ± 0.7 | 2.2 ± 0.2 | −4.5 | 2.1 ± 0.1 | −4.8 | 95 | 95 | 100 | 100 | N (Hill coefficient) (Hb [1]; 0.1 mM compound): 2.5^d*; P50 (Hb [1]; 0.1 mM compound): 30.1^d* mmHg; ΔP50 (Hb [1]; 0.1 mM compound): −0.5 mmHg; N (Hill coefficient) (Hb [1]; 0.5 mM compound): 2.1^d*; P50 (Hb [1]; 0.5 mM compound): 25.9^d* mmHg; ΔP50 (Hb [1]; 0.5 mM compound): −4.7 mmHg; N (Hill coefficient) (Hb [1]; 1 mM compound): 1.7^d*; P50 (Hb [1]; 1 mM compound): 23.2^d* mmHg; ΔP50 (Hb [1]; 1 mM compound): −7.4 mmHg; N (Hill coefficient) (Hb [2]; incubation 4 h): 2.1 ± 0.1; ΔP50 (Hb [2]; incubation 4 h): −4.3 mmHg; N (Hill coefficient) (Hb [2]; incubation 6 h): 2.0 ± 0.2; ΔP50 (Hb [2]; incubation 6 h): −5.1 mmHg; N (Hill coefficient) (Hb [2]; incubation 10 h): 2.0 ± 0.1; ΔP50 (Hb [2]; incubation 10 h): −4.5 mmHg; N (Hill coefficient) (Hb [2]; incubation 12 h): 2.0 ± 0.2; ΔP50 (Hb [2]; incubation 12 h): −5.0 mmHg |
| COc1ccc(C=O)cc1OCc1cccc(CO)n1 [TD-8, 3-((6-(Hydroxymethyl)pyridine-2-yl)methoxy)-4-methoxybenzaldehyde] | 1.9 ± 0.1^c† | 25.9 ± 2.5^c† mmHg | −5.4 | 1.9 | 7.6 | −4.9 |  |  |  |  |  |  |  |  |  |  | 14 | 20 | 38 |  |  |
| COc1ccc(C=O)c(OCc2cccc(CO)n2)c1 [TD-9, 2-((6-(Hydroxymethyl)pyridin-2-yl)methoxy)-4-methoxybenzaldehyde] | 1.6 ± 0.3^c† | 21.1 ± 1.2^c† mmHg | −10.2 | 1.7 | 6.8 | −5.7 |  |  |  |  |  |  |  |  |  |  | 26 | 35 | 57 |  |  |
| COc1cc(C=O)ccc1O [vanillin, reference compound] |  |  |  |  |  |  |  |  |  |  |  |  |  |  |  |  |  |  |  | 12 |  |
